Laboratory results: publication PMC6249039 (Journal of medicinal chemistry, 2018)

Target: influenza PA endonuclease (PAN) (Influenza A virus, UniProt C3W5S0, DEL52-63/E64G)
Assay type: biochemical, influenza A (A/California/04/2009) H1N1

Compound | Change in activity with presence or absence of excess metal ions
Cc1cc(=O)c(O)c(C(=O)O)o1 [Compound 1, 3-Hydroxy-6-methyl-4-oxo-4H-pyran-2-carboxylic acid] | no change
Cc1cc(=O)c(O)c(C(=O)O)[nH]1 [Compound 17, 3-Hydroxy-6-methyl-4-oxo-1,4-dihydropyridine-2-carboxylic acid] | no change
